Like-named read-outs stand apart in the source and are kept apart here.
Key:
primary HDF cultures = details: human, 1 month, 5 μM
8-OHdG adducts in HDFs = details: human, 30 min, 500 μM
[1] = system: murine polychromatic erythrocytes; details: for PCE/NCE ratio: cyclophosphamide 8 mg/mL, 12.5 ml/kg i.p. on day 2
Protocol: The mammalian in vivo micronucleus test is used for the identification of substances which cause damage to chromosomes or the mitotic apparatus of murine polychromatic erythrocytes. This damage results in the formation of “micronuclei,” intracellular structures containing lagging chromosome fragments or isolated whole chromosomes. […] The positive control mice received a single intraperitoneal injection of cyclophosphamide (8 mg/mL, 12.5 ml/kg) on day 2. All mice were observed immediately after injection for any adverse reactions. […] On day 3, all mice were weighed and terminated.
The femurs were excised from the terminated mice, the bone marrow was extracted, and duplicate smear preparations were performed for each mouse. The bone marrow slides for each animal were read at 40× magnification. The ratio of polychromatic erythrocytes (PCE) to normochromatic erythrocytes (NCE), an index of bone marrow toxicity, was determined for each mouse by counting a total of at least 200 erythrocytes. Then a minimum of 2000 scoreable PCE per mouse were evaluated for the incidence of micronucleated polychromatic erythrocytes. Statistical analysis of the data were done using the Mann and Whitney test (at 5% risk threshold) from a statistical software package (Statview 5.0, SAS Institute Inc., USA).

Row | cells with increased SA-β-Gal expression (primary HDF cultures) [%] | increase of 8-OHdG adducts relative to control-treated or ORP water solution-treated cells (8-OHdG adducts in HDFs) | Structure (SMILES) | PCE/NCE ratio ([1]; females) | number of polychromatic erythrocytes bearing micronuclei ([1]; males, ORP water solution = Microcyn 10%, 12.5 ml/kg i.p.) | PCE/NCE ratio ([1]; males)
1 | 86 | about 25 fold | OO [HP, hydrogen peroxide] |  |  | 
2 |  |  | O=P1(N(CCCl)CCCl)NCCCO1 (centres unmarked) [cyclophosphamide] | 0.73 | 11.0 | 0.77
